ChEMBL document CHEMBL4219208, “5'-Hydroxy-5'-homoaristeromycin: Synthesis and antiviral properties” (Bioorg Med Chem Lett, 2018)
Calls of active or inactive are those of the source. The calls are words filed in the database; no cut-off is given here.

Experiments:
Vero 76 = test: Cytotoxicity against African green monkey Vero 76 cells assessed as reduction in cell viability; assay type: cell-based; conditions: chlorocebus sabaeus
Vaccinia virus = test: Antiviral activity against Vaccinia virus Copenhagen infected in HFF cells; assay type: functional, organism-based; conditions: Orthopoxvirus vaccinia
Human alphaherpesvirus 1 = test: Antiviral activity against Herpes simplex virus 1 E-377 infected in HFF; assay type: functional, organism-based
West Nile virus = test: Antiviral activity against West Nile virus KERN 515/WN02 infected in MDCK cells; assay type: functional, organism-based
HEp-2 = test: Cytotoxicity against human Hep2 cells assessed as reduction in cell viability; assay type: cell-based
Human orthopneumovirus = test: Antiviral activity against Respiratory syncytial virus A infected in human Hep2 cells; assay type: functional, organism-based; conditions: type A
Poliovirus 1 = test: Antiviral activity against Polio virus type 1 infected in monkey LLC-MK2 clone 7.1 cells; assay type: functional, organism-based
Human betaherpesvirus 5 = test: Antiviral activity against Human cytomegalovirus AD169 infected in HFF; assay type: functional, organism-based; conditions: Human betaherpesvirus 5, AD169, HFF
Vero = test: Cytotoxicity against African green monkey Vero cells assessed as reduction in cell viability; assay type: cell-based; conditions: chlorocebus sabaeus
[1] = tested on: Venezuelan equine encephalitis virus; test: Antiviral activity against Venezuelan equine encephalitis virus TC-83 infected in African green monkey Vero cells; assay type: functional, organism-based
Hepatitis C virus = test: Antiviral activity against Hepatitis C virus Con1 infected in human Huh-Luc-Neo cells; assay type: functional, organism-based; conditions: Hepacivirus hominis; isolate Con1
Influenza A virus = test: Antiviral activity against Influenza A virus (A/California/07/2009(H1N1)) infected in MDCK cells; assay type: functional, organism-based
MDCK = test: Cytotoxicity against MDCK cells assessed as reduction in cell viability; assay type: cell-based, Canis lupus familiaris; conditions: dog
[2] = Cytotoxicity against human HepG2.2.15 cells assessed as reduction in cell viability; assay type: cell-based, HepG2 2.2.15
[3] = Cytotoxicity against HFF assessed as reduction in cell viability; assay type: cell-based; conditions: human, HFF cells
SARS-CoV = test: Antiviral activity against SARS coronavirus Toronto-2 infected in African green monkey Vero E6 cells; assay type: functional, organism-based; conditions: Severe acute respiratory syndrome-related coronavirus, Vero C1008
Human alphaherpesvirus 2 = test: Antiviral activity against Herpes simplex virus 2 G infected in HFF; assay type: functional, organism-based
Vero C1008 = test: Cytotoxicity against African green monkey Vero E6 cells assessed as reduction in cell viability; assay type: cell-based; conditions: chlorocebus sabaeus
LLC-MK2 = test: Cytotoxicity against monkey LLC-MK2 clone 7.1 cells assessed as reduction in cell viability; assay type: cell-based, Macaca mulatta; conditions: rhesus monkey
[4] = Cytotoxicity against human Huh-Luc-Neo cells assessed as reduction in cell viability; assay type: cell-based
Hepatitis B virus = test: Antiviral activity against Hepatitis B virus ayw infected in human HepG2.2.15 cells; assay type: functional, organism-based, Hepatitis B virus subtype ayw
dengue virus type 2 = test: Antiviral activity against Dengue virus type 2 New guinea infected in African green monkey Vero 76 cells; assay type: functional, organism-based
Rift Valley fever virus = test: Antiviral activity against Rift Valley fever virus MP-12 infected in African green monkey Vero 76 cells; assay type: functional, organism-based
Yellow fever virus = test: Antiviral activity against Yellow fever virus 17D infected in African green monkey Vero cells; assay type: functional, organism-based

SMILES | Activity (Vero 76) | Activity (Vaccinia virus) | Activity (Human alphaherpesvirus 1) | Activity (West Nile virus) | Activity (HEp-2) | Activity (Human orthopneumovirus) | Activity (Poliovirus 1) | Activity (Vero) | Activity [1] | Activity (Hepatitis C virus) | Activity (Influenza A virus) | Activity (MDCK) | CC50 [2] [µM] | Activity (SARS-CoV) | Activity (Human alphaherpesvirus 2) | Activity (Vero C1008) | Activity (LLC-MK2) | Activity [4] | EC50 (Hepatitis B virus) [µM] | Activity (dengue virus type 2) | other results
Nc1ncnc2c1ncn2[C@@H]1C[C@H]([C@@H](O)CO)[C@@H](O)[C@H]1O | Non-Toxic | inactive | inactive | inactive | Non-Toxic | inactive | inactive | Non-Toxic | inactive | inactive | inactive | Non-Toxic | > 100 | inactive | inactive | Non-Toxic | Non-Toxic | Non-Toxic | 7.4 | inactive | EC50 (Human betaherpesvirus 5): 0.72 µM; CC50 [3]: > 300 µM; Activity (Rift Valley fever virus): inactive
Nc1ncnc2c1ncn2[C@@H]1C[C@H]([C@H](O)CO)[C@@H](O)[C@H]1O | Non-Toxic | inactive | inactive | inactive | Non-Toxic | inactive | inactive | Non-Toxic | inactive | inactive | inactive | Non-Toxic | > 100 | inactive | inactive | Non-Toxic | Non-Toxic | Non-Toxic | 7.1 | inactive | Activity (Yellow fever virus): inactive; Activity (Rift Valley fever virus): inactive
